Assay results: patent publication US8187884B2, “Method of enhancing homologous recombination of somatic cells and method of constructing specific antibody” (Riken, priority 2002, dated 2012)

Assays:
Format in all cases: cell-based, chicken
IgM(-) DT40 cells = assay: IgM expression by FACS (appearance frequency of IgM(+) cells); conditions: 1.25 ng/ml trichostatin A, measured every other week by FACS
Procedure: (§1) At this time, a medium with 1.25 ng/ml trichostatin A added, and a medium with this not added, were prepared. This was incubated until single colonies appeared, and 5 clones (For No TSA, 6 clones) were transferred to a 6 well plate with 2 ml of fresh medium inside. At this time, incubation was continued by maintaining the original TSA concentration, and maintaining the cell concentration at 10^5-10^6 cells/ml.
Culture fluid containing approximately 10^6 IgM(−) cells on which trichostatin A treatment was done by the method described in Embodiment 2 was put in 1.5 ml tubes, said cells were recovered by centrifuging (1000 g, 5 minutes), and suspended in 200 μl of staining buffer (PBS, 0.3% BSA). The cells were recovered by centrifuging again, then suspended in 200 μl of FITC-labeled anti chicken IgM antibody (BETHYL) diluted to 1/250 fold with a staining buffer, and reacted for 1 hour on ice. The cells were recovered by centrifuging, then the cells were washed by suspending them again in 200 μl of staining buffer, and centrifuging this. After repeating this washing step one more time, the cells were suspended in 100 μl of staining buffer containing 5 μg/ml of propidium iodide (Nakarai). The fraction of cells expressing IgM was calculated by measuring 10 000 cells with an EPICS ELITE ESP (Beckman Coulter). At this time, cells stained by propidium iodide were gated out as dead cells.

[1] = test system: VJ region of antibody light chain gene in DT40 cell line (3H12); assay: MNase sensitivity (indirect end labeling, Southern blot) of antibody light chain gene chromatin after TSA treatment; conditions: 3H12 cells incubated 8 hours with TSA 0.625, 1.25, 2.5 ng/ml; MNase 0.04-1 U
Procedure: Whether an alteration of the chromatin structure of the antibody light chain gene has actually been produced by TSA was analyzed using indirect end labeling with micrococcal nuclease (MNase) sensitivity as an indicator. Among chicken antibody alleles, one is VJ rearranged and the other one is not rearranged, but it is known that actually functional in antibody production is VJ rearranged one. However, since both sequences are almost identical, it is difficult to analyze VJ rearranged allele of wild type DT40 cells by simple application of indirect end labeling method. In order to solve this problem, on the side for which VJ recombination has not occurred, a mutant of which sequences in the vicinity of the region to be used as a Southern hybridization probe is deleted is generated, and an analysis of MNase sensitivity using this mutant was performed. […]
The nuclear pellet was resuspended in 10 ml RSB (10 mM Tris-HCl (pH7.5), 10 mM NaCl, 1.5 mM MgCl2, 0.5 mM DTI. 1 mM PMSF). […] The DNA concentration of this nuclear suspension was measured by Hoechst 33258 binding, and suspension corresponding to 100 μg was made into […] with RSB. […]

DT40 cells = assay: Sequence analysis of antibody light chain gene variable region (somatic homologous recombination)
Procedure: DT40 cells were incubated at 39.5 degrees C. in a CO2 constant temperature oven in 5% CO2. IMDM medium (Invitrogen) was utilized as the medium, with 10% FBS, 1% chicken serum, 100 units/ml penicillin, 100 μg/ml streptomycin, and 55 μM 2-mercaptoethanol added. Additionally, for trichostatin A (Wako Pure Chemical Industries), this was dissolved to 5 mg/ml in methanol for stock, and this was used by diluting in an appropriate medium until the final concentration was 1.25 ng/ml.
as §1
With the abovementioned method, live cells of DT40 that were incubated for 3 weeks were recovered by fluorescence-activated cell sorter. With an EPICS ELITE ESP, 100 000 live cells were collected in a 1.5 ml tube. […]
PCR (Perkin Elmer 9600) was utilized for the amplification of the antibody light chain gene variable region. […] Plasmids were extracted, and the sequence was analyzed by an ABI PRI SM 377 DNA Sequencer (Perkin Elmer).

In the case of `CC(/C=C/C(=O)NO)=C\[C@@H](C)C(=O)c1ccc(N(C)C)cc1` [trichostatin A], the “fraction of cells expressing IgM (IgM(+) cells)” value (IgM(-) DT40 cells) is reported as “increased time dependently”, the “accessibility of MNase to the VJ regions” value [1] is reported as “increased” and the “chromatin structure of the VJ regions” value [1] is reported as “relaxed”. The “diversity of antibody light chain genes” value (DT40 cells; DT40 cells cultured 3 weeks with 1.25 ng/ml trichostatin A vs absence) was “rose markedly” and the “number of sequence types of antibody light chain gene variable region among 42 samples” value (DT40 cells; DT40 cells cultured 3 weeks with 1.25 ng/ml trichostatin A, 42 samples) was 16 types.
